Columns and labels:
DENV-2 NGC [1] = experiment: Antiviral activity against DENV-2 NGC in Vero-B cells (viral RNA load by RT-qPCR); assay type: cell-based, Dengue virus; conditions: Dengue virus, DENV2, Vero B, DENV-2 in Vero-B cells; inhibition of viral RNA replication by 50% (Table 3)
[2] = test system: DENV-1 Djibouti strain D1/H/IMTSSA/98/606; experiment: Antiviral activity against DENV-1 in Vero-B cells (viral RNA load by RT-qPCR); assay type: cell-based, Dengue virus; conditions: Dengue virus, DENV1, Vero B
[3] = test system: DENV-3 strain H87 prototype; experiment: Antiviral activity against DENV-3 in Vero-B cells (viral RNA load by RT-qPCR); assay type: cell-based, Dengue virus; conditions: Dengue virus, DENV3, Vero B
[4] = test system: DENV-4 strain Dak HD 34 460; experiment: Antiviral activity against DENV-4 in Vero-B cells (viral RNA load by RT-qPCR); assay type: cell-based, Dengue virus; conditions: Dengue virus, DENV4, Vero B
YFV-17D = experiment: microbe, parasite or virus in culture; assay type: cell-based; conditions: Yellow fever virus, Vero B
in vitro = conditions: African green monkey; for CC50 at 4 days: uninfected quiescent Vero-B cells
[5] = test system: uninfected quiescent Vero-B cells; experiment: Cytotoxic assay in uninfected quiescent Vero-B cells (MTS/PMS); conditions: 4 days (Table 3)
DENV-2 NGC [6] = experiment: Antiviral activity against DENV-2 NGC in A549 cells (viral RNA load by RT-qPCR); assay type: cell-based; conditions: Dengue virus, DENV2; DENV-2 in A549 cells (Table 6)
[7] = Cytotoxicity in A549 cells (MTS/PMS); assay type: cell-based; conditions: human; A549 cells (Table 6)
Procedure: A similar protocol was used to assess cytotoxicity in A549 cells with the difference that cells were seeded at 2×10^4 cells/well.

Structure (SMILES)	EC50 (DENV-2 NGC [1]) [nM]	EC50 [2] [nM]	EC50 [3] [nM]	EC50 [4] [nM]	EC50 (YFV-17D) [nM]	CC50 (in vitro) [nM]	CC50 [5] [nM]	EC50 (DENV-2 NGC [6]) [nM]	CC50 at 4 days [7] [nM]	CC50 at 4 days (in vitro) [nM]
COc1ccc(NC(C(=O)c2c[nH]c3ccccc23)c2ccccc2)cc1OC (stereo not drawn) [CPD-001]	80	1600	29400	4450	9160	43000	29000	–	–	–
COc1cc(NC(C(=O)c2c[nH]c3ccccc23)c2ccccc2)cc(OC)c1 (stereo not drawn) [CPD-002]	10	540	< 500	27200	2810	25000	16000	–	–	–
COc1cccc(NC(C(=O)c2c[nH]c3ccccc23)c2ccccc2)c1 (stereo not drawn) [CPD-010]	70	1290	3540	5430	< 600	12000	18000	66	16000	–
COc1cc(NC(C(=O)c2c(C)[nH]c3ccccc23)c2ccccc2)cc(OC)c1 (stereo not drawn) [CPD-012]	50	4420	< 500	–	< 500	12000	–	–	–	14000
COc1cc(NC(C(=O)c2c[nH]c3cc(Cl)ccc23)c2ccccc2)cc(OC)c1 (stereo not drawn) [CPD-013]	2	90	< 500	1810	520	11000	–	–	–	9000
COc1cccc(NC(C(=O)c2c[nH]c3ccccc23)c2cccnc2)c1 (stereo not drawn) [CPD-019]	140	670	2180	8380	6180	56000	71000	–	–	–
COc1cccc(NC(C(=O)c2c[nH]c3cccc(Cl)c23)c2ccccc2)c1 (stereo not drawn) [CPD-053]	20	1640	11200	7110	–	–	18000	–	–	–
COc1cccc(NC(C(=O)c2c[nH]c3cc(OC)ccc23)c2ccccc2)c1 (stereo not drawn) [CPD-077]	40	1420	2070	4270	–	–	13000	–	–	–
COc1cccc(NC(C(=O)c2c[nH]c3ccccc23)c2cc3ccccn3n2)c1 (stereo not drawn) [CPD-083]	30	540	710	2520	–	–	26000	–	–	–
COc1cccc(NC(C(=O)c2c[nH]c3ccc(F)cc23)c2ccccc2)c1 (stereo not drawn) [CPD-119]	30	690	1740	2910	–	–	13000	–	–	–
COc1cccc(NC(C(=O)c2c[nH]c3cc(F)ccc23)c2ccccc2)c1 (stereo not drawn) [CPD-123]	50	1600	2560	2640	–	–	15000	–	–	–
COc1cc(NC(C(=O)c2c[nH]c3ccc(F)cc23)c2ccccc2)cc(OC)c1 (stereo not drawn) [CPD-131]	10	250	680	4770	–	–	13000	8	11000	–
COc1cccc(NC(C(=O)c2c[nH]c3ccccc23)c2ccc(C)cc2)c1 (stereo not drawn) [CPD-139]	20	650	460	3810	–	–	20000	–	–	–
COc1cccc(NC(C(=O)c2c[nH]c3ccccc23)c2ccc(F)cc2)c1 (stereo not drawn) [CPD-149]	30	2880	4010	5720	–	–	14000	–	–	–
COc1cccc(NC(C(=O)c2csc3ccccc23)c2ccccc2)c1 (stereo not drawn) [CPD-193]	720	23700	18900	5440	< 500	> 133000	–	–	–	> 133000
COc1cccc(NC(C(=O)c2c[nH]c3ccccc23)c2ccc(C)nc2)c1 (stereo not drawn) [CPD-226]	70	920	810	8640	–	–	73000	–	–	–
COc1cccc(NC(C(=O)c2c[nH]c3cccc(F)c23)c2ccccc2)c1 (stereo not drawn) [CPD-230]	120	350	3530	2560	–	–	21000	–	–	–

— patent US12012411B2, “Viral replication inhibitors” (Katholieke Universiteit Leuven, priority 2011, dated 2024)
